Experiments:
Type in all cases: binding
Design in all cases: KINOMEscan: ABL1(F317L)-phosphorylated / KINOMEscan: ABL1(H396P)-nonphosphorylated / KINOMEscan: ABL1(H396P)-phosphorylated / KINOMEscan: ABL1(M351T)-phosphorylated / KINOMEscan: ABL1(T315I)-phosphorylated / KINOMEscan: ABL1-nonphosphorylated / KINOMEscan: ABL1-phosphorylated / KINOMEscan: ACVR2A / KINOMEscan: ACVR2B / KINOMEscan: ADCK3 / KINOMEscan: ADCK4 / KINOMEscan: AKT1 / KINOMEscan: AKT3 / KINOMEscan: ALK / KINOMEscan: ARK5 / KINOMEscan: AURKA / KINOMEscan: AURKC / KINOMEscan: BIKE / KINOMEscan: BMPR1A / KINOMEscan: BMPR1B / KINOMEscan: BMX / KINOMEscan: BRK / KINOMEscan: BRSK1 / KINOMEscan: BRSK2 / KINOMEscan: CAMK1 / KINOMEscan: CAMK1D / KINOMEscan: CAMK1G / KINOMEscan: CAMK2A / KINOMEscan: CAMK2B / KINOMEscan: AAK1 / KINOMEscan: CAMK2D / KINOMEscan: CAMK2G / KINOMEscan: ABL1(F317I)-nonphosphorylated / KINOMEscan: ABL1(F317I)-phosphorylated / KINOMEscan: ABL1(F317L)-nonphosphorylated: unit: % Ctrl
[1] = target: T1, panel of 442 kinases (Homo sapiens, UniProt P00519, M351T); conditions: Compound Concentration 10 µM
T1 construct: purchased KINOMEscan
From the text: (§1) We assessed the selectivity of members of this scaffold using the KINOMEscan methodology across a near comprehensive panel of 442 kinases [[18,27]].

[2] = target: T2, panel of 442 kinases (Homo sapiens, UniProt P00533, G719C); conditions: Compound Concentration 10 µM
T2 construct: purchased KINOMEscan
From the text: as §1

[3] = target: T3, panel of 442 kinases (Homo sapiens, UniProt P08581, Y1235D); conditions: Compound Concentration 10 µM
T3 construct: purchased KINOMEscan
From the text: as §1

[4] = target: T4, panel of 442 kinases (Homo sapiens, UniProt Q9BX84); conditions: kinase TRPM6; compound concentration 10 µM
T4 construct: purchased KINOMEscan
From the text: as §1

T3 sequence (P08581 25-1390 Y1235D): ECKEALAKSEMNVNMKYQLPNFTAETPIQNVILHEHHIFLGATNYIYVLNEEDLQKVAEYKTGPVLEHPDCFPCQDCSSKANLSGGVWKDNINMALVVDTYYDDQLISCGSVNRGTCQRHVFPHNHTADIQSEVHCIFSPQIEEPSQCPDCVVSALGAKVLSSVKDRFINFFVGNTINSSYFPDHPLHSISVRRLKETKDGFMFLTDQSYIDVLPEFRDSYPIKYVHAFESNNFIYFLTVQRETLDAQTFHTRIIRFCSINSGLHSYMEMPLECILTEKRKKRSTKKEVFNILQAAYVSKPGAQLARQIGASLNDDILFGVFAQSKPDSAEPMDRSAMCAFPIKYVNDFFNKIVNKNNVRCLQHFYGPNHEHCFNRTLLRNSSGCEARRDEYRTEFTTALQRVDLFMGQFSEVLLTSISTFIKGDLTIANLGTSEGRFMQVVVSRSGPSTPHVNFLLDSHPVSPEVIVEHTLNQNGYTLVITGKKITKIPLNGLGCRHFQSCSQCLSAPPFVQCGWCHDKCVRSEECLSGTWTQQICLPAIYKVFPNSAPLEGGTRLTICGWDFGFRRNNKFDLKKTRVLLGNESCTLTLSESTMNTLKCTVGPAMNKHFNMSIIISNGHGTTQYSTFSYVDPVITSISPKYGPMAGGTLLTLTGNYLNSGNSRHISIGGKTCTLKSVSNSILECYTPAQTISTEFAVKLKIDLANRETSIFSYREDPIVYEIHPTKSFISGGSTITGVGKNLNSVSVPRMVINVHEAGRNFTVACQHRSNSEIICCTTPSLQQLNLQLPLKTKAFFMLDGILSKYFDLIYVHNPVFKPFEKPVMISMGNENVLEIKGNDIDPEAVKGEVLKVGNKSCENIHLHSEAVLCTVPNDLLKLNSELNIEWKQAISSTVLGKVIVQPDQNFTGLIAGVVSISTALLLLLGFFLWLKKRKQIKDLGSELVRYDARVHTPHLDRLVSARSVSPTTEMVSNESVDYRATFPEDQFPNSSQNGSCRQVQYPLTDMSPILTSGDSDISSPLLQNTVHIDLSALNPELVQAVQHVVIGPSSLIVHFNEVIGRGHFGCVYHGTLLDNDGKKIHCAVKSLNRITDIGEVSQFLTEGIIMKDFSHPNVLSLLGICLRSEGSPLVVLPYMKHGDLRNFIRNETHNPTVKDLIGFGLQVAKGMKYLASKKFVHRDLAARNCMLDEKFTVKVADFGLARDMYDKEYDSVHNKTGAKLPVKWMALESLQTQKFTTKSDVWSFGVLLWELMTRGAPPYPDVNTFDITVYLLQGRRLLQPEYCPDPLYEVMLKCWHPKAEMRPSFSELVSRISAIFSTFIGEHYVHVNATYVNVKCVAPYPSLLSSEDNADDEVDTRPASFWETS
T4 sequence (Q9BX84 whole entry): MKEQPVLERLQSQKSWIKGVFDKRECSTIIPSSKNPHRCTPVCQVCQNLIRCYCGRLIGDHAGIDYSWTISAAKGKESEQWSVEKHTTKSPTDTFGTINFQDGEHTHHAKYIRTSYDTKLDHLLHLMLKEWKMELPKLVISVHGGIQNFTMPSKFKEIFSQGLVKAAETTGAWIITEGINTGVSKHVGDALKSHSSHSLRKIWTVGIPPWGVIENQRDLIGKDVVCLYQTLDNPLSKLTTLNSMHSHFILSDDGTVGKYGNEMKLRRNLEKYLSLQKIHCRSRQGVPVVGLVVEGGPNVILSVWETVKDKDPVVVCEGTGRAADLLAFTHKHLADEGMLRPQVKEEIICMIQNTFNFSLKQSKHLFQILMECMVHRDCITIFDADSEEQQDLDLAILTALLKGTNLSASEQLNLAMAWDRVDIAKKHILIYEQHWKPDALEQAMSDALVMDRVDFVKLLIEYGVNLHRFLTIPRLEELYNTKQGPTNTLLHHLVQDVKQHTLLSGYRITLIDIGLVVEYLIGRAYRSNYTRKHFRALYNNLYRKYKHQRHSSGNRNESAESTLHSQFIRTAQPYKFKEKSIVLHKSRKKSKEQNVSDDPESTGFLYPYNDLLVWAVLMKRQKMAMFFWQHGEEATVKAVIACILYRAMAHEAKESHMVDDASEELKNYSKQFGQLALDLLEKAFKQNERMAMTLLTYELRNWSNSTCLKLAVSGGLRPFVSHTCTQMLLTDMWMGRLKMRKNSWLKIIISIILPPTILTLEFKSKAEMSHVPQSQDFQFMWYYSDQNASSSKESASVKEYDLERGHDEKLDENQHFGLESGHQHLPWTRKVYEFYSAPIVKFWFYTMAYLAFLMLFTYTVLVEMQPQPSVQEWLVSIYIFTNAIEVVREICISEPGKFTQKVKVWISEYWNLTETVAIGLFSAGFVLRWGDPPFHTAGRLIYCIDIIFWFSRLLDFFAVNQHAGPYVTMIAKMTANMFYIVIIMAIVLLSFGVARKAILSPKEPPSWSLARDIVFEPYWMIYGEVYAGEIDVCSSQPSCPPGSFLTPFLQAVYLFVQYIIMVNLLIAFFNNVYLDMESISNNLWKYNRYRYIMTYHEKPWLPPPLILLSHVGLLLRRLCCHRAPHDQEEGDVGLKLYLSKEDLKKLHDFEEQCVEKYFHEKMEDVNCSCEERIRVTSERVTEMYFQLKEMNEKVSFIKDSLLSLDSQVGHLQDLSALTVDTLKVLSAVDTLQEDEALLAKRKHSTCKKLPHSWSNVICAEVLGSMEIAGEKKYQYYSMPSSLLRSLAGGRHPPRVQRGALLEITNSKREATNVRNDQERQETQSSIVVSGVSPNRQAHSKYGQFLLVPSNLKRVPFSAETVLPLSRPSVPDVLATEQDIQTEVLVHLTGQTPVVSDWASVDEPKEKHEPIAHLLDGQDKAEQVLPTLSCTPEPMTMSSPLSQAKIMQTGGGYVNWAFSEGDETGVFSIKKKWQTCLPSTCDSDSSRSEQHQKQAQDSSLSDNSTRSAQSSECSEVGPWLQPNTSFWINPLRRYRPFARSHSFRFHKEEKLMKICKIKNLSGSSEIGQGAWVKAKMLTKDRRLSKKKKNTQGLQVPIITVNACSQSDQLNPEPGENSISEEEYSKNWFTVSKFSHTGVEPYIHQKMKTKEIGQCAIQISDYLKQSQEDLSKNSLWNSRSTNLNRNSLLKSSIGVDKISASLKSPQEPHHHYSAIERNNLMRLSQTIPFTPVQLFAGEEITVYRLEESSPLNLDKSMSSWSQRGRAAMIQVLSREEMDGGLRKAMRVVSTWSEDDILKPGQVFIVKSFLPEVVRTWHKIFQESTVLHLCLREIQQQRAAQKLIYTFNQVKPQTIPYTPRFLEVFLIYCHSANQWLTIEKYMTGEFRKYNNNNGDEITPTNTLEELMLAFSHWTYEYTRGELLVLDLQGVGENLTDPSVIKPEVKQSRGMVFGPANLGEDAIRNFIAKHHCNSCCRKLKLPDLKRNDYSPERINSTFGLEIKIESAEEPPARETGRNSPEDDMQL
T2 sequence (P00533 25-1210 G719C): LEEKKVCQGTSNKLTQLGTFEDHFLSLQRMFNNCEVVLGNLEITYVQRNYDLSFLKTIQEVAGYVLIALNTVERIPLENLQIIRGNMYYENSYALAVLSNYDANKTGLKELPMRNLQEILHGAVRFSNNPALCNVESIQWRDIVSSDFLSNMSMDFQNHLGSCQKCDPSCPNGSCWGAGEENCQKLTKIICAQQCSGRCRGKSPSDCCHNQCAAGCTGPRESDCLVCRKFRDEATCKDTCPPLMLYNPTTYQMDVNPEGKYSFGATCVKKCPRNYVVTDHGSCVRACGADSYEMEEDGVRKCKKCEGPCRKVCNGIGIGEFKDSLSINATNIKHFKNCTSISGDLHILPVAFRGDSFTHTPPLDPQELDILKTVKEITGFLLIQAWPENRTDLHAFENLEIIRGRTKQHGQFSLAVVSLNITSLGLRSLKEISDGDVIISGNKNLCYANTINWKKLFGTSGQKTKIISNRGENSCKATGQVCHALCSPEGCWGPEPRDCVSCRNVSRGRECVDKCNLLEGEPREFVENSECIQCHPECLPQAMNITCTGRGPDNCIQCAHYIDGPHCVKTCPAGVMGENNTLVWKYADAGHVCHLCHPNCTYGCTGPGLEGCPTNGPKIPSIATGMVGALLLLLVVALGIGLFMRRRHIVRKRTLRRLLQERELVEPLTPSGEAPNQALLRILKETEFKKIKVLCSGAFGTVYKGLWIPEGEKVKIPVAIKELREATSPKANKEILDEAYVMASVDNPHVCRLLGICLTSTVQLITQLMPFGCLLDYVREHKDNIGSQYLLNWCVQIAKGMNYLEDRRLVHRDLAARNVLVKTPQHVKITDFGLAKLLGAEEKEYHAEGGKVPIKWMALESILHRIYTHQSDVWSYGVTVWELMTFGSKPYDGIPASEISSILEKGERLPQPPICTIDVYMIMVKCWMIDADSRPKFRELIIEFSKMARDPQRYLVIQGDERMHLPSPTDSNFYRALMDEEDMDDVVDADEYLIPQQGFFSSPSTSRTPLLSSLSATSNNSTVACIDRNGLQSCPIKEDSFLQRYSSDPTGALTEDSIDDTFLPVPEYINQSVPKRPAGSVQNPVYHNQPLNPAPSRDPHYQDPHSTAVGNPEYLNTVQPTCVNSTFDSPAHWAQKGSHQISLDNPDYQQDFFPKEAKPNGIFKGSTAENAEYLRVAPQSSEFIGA

| Structure (SMILES) | KINOMEscan: ABL1(M351T)-phosphorylated [1] | KINOMEscan: EGFR(G719C) [2] | KINOMEscan: MET(Y1235D) [3] | % Ctrl, TRPM6 [4] |
| --- | --- | --- | --- | --- |
| COc1cc(C(=O)N2CCC(N3CCN(C)CC3)CC2)ccc1Nc1ncc2c(n1)N(C1CCCC1)c1ccccc1C(=O)N2C [Compound 25, 11-cyclopentyl-2-((2-methoxy-4-(4-(4-methylpiperazin-1-yl)piperidine-1-carbonyl)phenyl)amino)-5-methyl-5H-benzo[e]pyrimido[5,4-b][1,4]diazepin-6(11H)-one] | 80 | 71 | 100 | 100 % Ctrl |
| CCOc1cc(C(=O)N2CCC(N3CCN(C)CC3)CC2)ccc1Nc1ncc2c(n1)N(C1CCCC1)c1ccccc1C(=O)N2C [Compound 26] | 89 | 100 | 100 | 94 % Ctrl |
| COc1cc(C(=O)N2CCC(N3CCN(C)CC3)CC2)ccc1Nc1ncc2c(n1)N1CCc3cccc(c31)C(=O)N2C [Compound 24] | 77 | 66 | 74 | 100 % Ctrl |
| COc1cc(C(=O)N2CCC(N3CCN(C)CC3)CC2)ccc1Nc1ncc2c(n1)N(C)c1ccccc1C(=O)N2C [15 (LRRK2-IN-1)] | 94 | 100 | 100 | 100 % Ctrl |

From PMC3914206
